Measured values from patent US7667070B2, “Lipophilic compounds and uses thereof” (Centre National de la Recherche Scientifique (CNRS), priority 2002, dated 2010).

Key:
mice's lungs = assay: In vivo transfection of luciferase plasmid DNA complexed with cationic lipid (luciferase in lungs, RLU); set-up: species or system mice of the Swiss lineage; conditions: mouse, 50 μg plasmid DNA as lipid/DNA complex; alone or with DOPE or cholesterol; FIG. 6
Method: Cationic lipid/DNA complexes are prepared according to a charge (+/−) ratio of 4 and are administered to six week old mice of the Swiss lineage through one single injection into the caudal vein. Each animal receives a volume of 200 μl of a solution of the tested lipid/DNA complex, corresponding to 50 μg plasmid DNA coding the luciferase protein.
The animals are sacrificed 24 hours after the injection and each organ of interest id deep frozen in liquid nitrogen and then stored at a temperature of −70° C.
The deep frozen tissues are ground with steel balls in a 2 ml round bottom tube of the Epperdorf type using a device of the Mill MM300 mixer type (marketed by QIAGEN Company; reference: 0030120-094).
The extraction of the proteins from each tissue is performed by incubating the ground tissues in a PLB lysis buffer (Promega) followed by a centrifugation at 10,000 g, 10 min at 4° C. […]
Parallelly, the total protein concentration is measured using the <<Coomassie Plus Reagent Assay Kit>> (marketed by Pierce Company). […]
A comparative study of different cationic lipids is conducted by varying the linking part (Group R^3) between the hydrophobic domain and the hydrophilic domain, in mouse. Each lipid is evaluated separately or in admixture with the DOPE compound or cholesterol, used as co-lipids, as described in the <<Material and Methods>> section.

[1] = system: K 562, Jurkat, Daudi, HeLa, CFPAC cells; assay: Determination of the cell toxicity of lipid/DNA complexes (CYTOLITE chemiluminescent test, toxicity index); assay type: cell-based; conditions: 48 hours after transfection; non transfected cells as controls
Method: The relative cytotoxicity of the different cationic phosphonolipid/DNA complexes is determined as a representation of the number of living cells after the transfection experiment, measured by using a chemiluminescent test, the CYTOLITE® test (marketed by PACKARD Company, France) following the manufacturer's recommendations.
The cell transfection is conducted following the procedure described in the above Section A.3.
On the day of the transfection, cells are seeded in 24-well plate wells at a level of: • 500,000 cells per well for the non adherent cell lineages (K 562. Jurkat, Daudi); and • 150,000 cells per well for the adherent cell lineages (HeLa, CFPAC cells in primary culture).
The cells are treated for the transfection as described hereinabove and incubated for another period of 48 hours.
After incubation, the cytotoxicity test is conducted following the manufacturer's recommendations.
The amount of relative light units (RLU for <<Relative light units>>) being formed is proportional to the number of living cells.
The non transfected cells are used as controls.
The final results are expressed following a toxicity index. The toxicity index represents the ratio between the number of living cells in the control cultures (without cationic lipids/DNA complex) and the number of living cells in the culture wells containing the transfected cells.

Row | Structure (SMILES) | in vivo transfection efficiency (luciferase amount found in lungs) (mice's lungs) | cytotoxicity (toxicity index: living cells in control cultures / living cells in transfected cultures) [1]
1 | CCCCCCCC/C=C\CCCCCCCCOP(=O)(NCCC[P+](C)(C)C)OCCCCCCCC/C=C\CCCCCCCC.[I-] [KLN20, dioleyl 3-(trimethylphosphonio)propylamidophosphate iodide] | most efficient | 
2 | CCCCCCCCCCCCCCOP(=O)(OCCCCCCCCCCCCCC)N(C)CCC[N+](C)(C)C.[I-] [KLN 5, 3-[[bis(tetradecyloxy)phosphoryl](methyl)amino]-N.N.N-trimethyl-propanaminium iodide] |  | does not show any toxicity
